Drawing on patent US8580815B2, “Derivatives of azaindoles as inhibitors of protein kinases ABL and SRC” (Oribase Pharma, priority 2009, dated 2013), this text covers inhibition and IC50 for 5 molecules.

One assay addresses Src kinase (h) (Homo sapiens (Human), UniProt P12931). Description: Cerep kinase profiling, HTRF assay, Src kinase. Type of assay: biochemical. As for the experimental part:
(§1) The inhibitory activity of the compounds of the chemical series on different protein kinases was evaluated by Cerep (Cerep Kinase Profiling Service; www.cerep.com). The kinases used in the tests in vitro are human recombinant proteins expressed in human cells, insect cells or in bacteria. […] The activity of the kinase was then detected by an HTRF assay. The HTRF assay (CisBio International) is based on fluorescence transfer, using Europium (Eu3+) cryptate and XL665 respectively as donor and acceptor. When the biotinylated or tagged substrate is phosphorylated by the kinase, it reacts with a cryptate-labelled phosphospecific antibody. Addition of Streptavidin-XL665, SA-XL665, (or anti-tag antibody XL665) leads to juxtaposition of the cryptate and of the fluorophore XL665, which is reflected in fluorescence resonance energy transfer (FRET). The intensity of FRET depends on the quantity of cryptate-labelled antibody bound to the substrate, which is proportional to the quantity of phosphorylated substrate (Mathis, G. Probing molecular interactions with homogeneous techniques based on rare earth cryptates and fluorescence energy transfer.
On the technique in general: TR-FRET usually uses a lanthanide donor and a delayed reading to cut background.

A further assay has as its target Abl kinase (h) (Homo sapiens (Human), UniProt P00519). Description: Cerep kinase profiling, HTRF assay, Abl kinase. Type of assay: biochemical. As for the experimental part:
as §1

Another assay addresses Abl T315I (Homo sapiens (Human), UniProt P00519, T315I). Nature of the assay: Reaction Biology Corp. kinase assay, mutated Abl T315I. It is filed as biochemical. The conditions noted are these: Reaction Biology Corp. As for the experimental part: (§2) 4 compounds were tested for their capacity to inhibit various mutated kinases AbI (American company, Reaction Biology Corp.).

In assay [1] the test system is K562 cells expressing kinase Bcr-AbI. Nature of the assay: Inhibition of cellular proliferation (MTT), K562 cells. It is filed as cell-based, human. The conditions noted are these: Homo sapiens. As for the experimental part:
Cellular tests were carried out at the Montpellier Cancer Research Centre. The inhibition of proliferation by our compounds was analysed on 2 cell lines (U937 and K562) by calculating the IC50, testing 6 concentrations in triplicate for each of the compounds and for each line.
Cells in exponential phase were seeded in 96-well plates at a concentration of 10^4 cells/100 μL/well. The final concentrations of compound in the well in contact with the cells were 0.1; 0.3; 0.9; 3.3; 10; 30; 90 μM. […]

A further assay concerns the target Abl WT (Homo sapiens (Human), UniProt P00519). Nature of the assay: Reaction Biology Corp. kinase assay, Abl WT. It is filed as biochemical. The conditions noted are these: compounds tested by Reaction Biology Corp. As for the experimental part:
as §2

The next assay concerns the target Src kinase (Homo sapiens (Human), UniProt P12931). Description: Reaction Biology Corp. kinase assay, Src. The conditions noted are these: compounds tested by Reaction Biology Corp.
Where [2] appears, read: 10 μM, compounds tested by Cerep, read-out: % inhibition of kinase activity, Src (category).
[3] abbreviates: compound incubated at 10 μM, read-out: Percentage inhibition of kinase c-Src.
[4] abbreviates: 10 μM, compounds tested by Cerep, read-out: % inhibition of kinase activity, Abl WT (category).
The mark [5] stands for this setting: Table 6, compound incubated at 10 μM, read-out: Percentage inhibition of kinase Abl.
[6] abbreviates: Table 8, compound incubated at 10 μM, read-out: Percentage inhibition of kinase Abl.

Read-outs that look alike come from different tables or passages of the source.

Chain of Src kinase (h) (P12931 whole entry, looked up): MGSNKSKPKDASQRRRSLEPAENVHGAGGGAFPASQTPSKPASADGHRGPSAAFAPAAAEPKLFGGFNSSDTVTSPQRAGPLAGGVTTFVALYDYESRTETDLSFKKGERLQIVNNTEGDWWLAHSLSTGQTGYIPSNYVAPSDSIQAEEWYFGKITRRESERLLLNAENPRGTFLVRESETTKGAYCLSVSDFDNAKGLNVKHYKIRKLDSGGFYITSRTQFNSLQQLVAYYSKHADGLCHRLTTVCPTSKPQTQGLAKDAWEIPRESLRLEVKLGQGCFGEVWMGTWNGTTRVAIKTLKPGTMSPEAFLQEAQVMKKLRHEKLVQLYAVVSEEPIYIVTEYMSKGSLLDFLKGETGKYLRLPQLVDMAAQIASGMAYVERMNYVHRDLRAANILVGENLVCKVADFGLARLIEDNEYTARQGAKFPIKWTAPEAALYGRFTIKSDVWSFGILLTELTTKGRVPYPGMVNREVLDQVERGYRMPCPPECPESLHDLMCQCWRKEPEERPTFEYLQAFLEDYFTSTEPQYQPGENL
Chain of Src kinase (P12931 whole entry, looked up): as above

Consider `COCc1cc2cc(NC(=O)c3ccccc3Br)cnc2[nH]1` [ND0021, 2-bromo-N-(2-(methoxymethyl)-1H-pyrrolo[2,3-b]pyridin-5-yl)benzamide], for which the inhibition at 10 µM on Src kinase (h) (setting [2]) is over 50%; at Src kinase (h) (setting [3]), 59%; on Abl kinase (h) (setting [4]) it was over 50%; at Abl kinase (h) (setting [5]), 94%; on Abl kinase (h) (setting [6]), 94%.
`O=C(Nc1cnc2[nH]c(Cc3ccc[nH]3)cc2c1)c1ccccc1Br` [ND0037]: the inhibition at 10 µM at Src kinase (h) (setting [2]) is over 50%; on Src kinase (h) (setting [3]), 72%; at Abl kinase (h) (setting [4]), over 50%; at Abl kinase (h) (setting [5]), 97%; on Abl kinase (h) (setting [6]), 97%.
For the molecule `O=C(Nc1cnc2[nH]c(CNc3ccc(O)cc3)cc2c1)c1ccccc1Br` [ND0038], the inhibition at 10 µM on Src kinase (h) (setting [2]) was over 50%; on Src kinase (h) (setting [3]), 71%; at Abl kinase (h) (setting [4]), over 50%; on Abl kinase (h) (setting [5]), 94%; at Abl kinase (h) (setting [6]), 94%. Also, the IC50 at Abl kinase (h) (Table 9, Cerep, 5 concentrations 10^−10 M to 10^−4 M, read-out: IC50 in M Abl) was 2600 nM; on Abl kinase (h) (compounds tested by Cerep, read-out: IC50 on kinase Abl WT (category)), 100 to 10000 nM.
As to `COC(=O)c1cc2cc(NC(=O)c3c(F)cccc3OC)cnc2[nH]1` [ND0047, Methyl 5-(2-fluoro-6-methoxybenzamido)-1H-pyrrolo[2,3-b]pyridine-2-carboxylate], the inhibition at 10 µM on Src kinase (h) (setting [2]) is over 50%; on Src kinase (h) (setting [3]), 74%; on Abl kinase (h) (setting [4]), over 50%; at Abl kinase (h) (setting [5]), 94%; on Abl kinase (h) (setting [6]) it was 94%.
For the molecule `COC(=O)c1cc2cc(NC(=O)c3cc(NC(=O)c4ccc(CN5CCC(N(C)C)C5)c(C(F)(F)F)c4)ccc3C)cnc2[nH]1` (stereo not shown) [ND0119, methyl 5-(5-(4-((3-(dimethylamino)pyrrolidin-1-yl)methyl)-3-(trifluoro-methyl)benzamido)-2-methylbenzamido)-1H-pyrrolo[2,3-b]pyridine-2-carboxylate], the inhibition at 10 µM is over 50% on Abl T315I (10 μM, read-out: % inhibition of kinase activity, Abl T315I (category)); over 50% at Abl WT (10 μM, read-out: % inhibition of kinase activity, Abl WT (category)); over 50% on Src kinase (read-out: % inhibition of kinase activity, Src (category), 10 μM). Moreover, the concentration for half-maximal inhibition (IC50) at Abl T315I (ATP at 10 μM, read-out: IC50 on kinase Abl T315I (category)) was 100 to 10000 nM; in assay [1] (K562, 24 h, 24 h incubation, read-out: IC50 at 24 h on K562 (category)), 10 nM; in assay [1] (K562, 72 h, read-out: IC50 at 72 h on K562 (category), 72 h incubation) it was under 10 nM; in assay [1] (K562, incubation time not stated (24 h and/or 72 h), read-out: IC50 for the K562 Bcr-AbI kinase (category)), 10 nM; at Abl WT (ATP at 10 μM, read-out: IC50 on kinase Abl WT (category)), under 1 nM; against Src kinase (IC50 on kinase Src (category), ATP at 10 μM) it was 1 to 100 nM.

A word on the inhibition: it is the share of the control response that was lost under treatment. Usually IC50 stands for the point on the concentration scale where inhibition reaches its midpoint.
